Source: PubChem BioAssay (NCI)
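All cell lines were grown in 96-well plates and treated with compound for 48 hours. GI50: concentration for 50% inhibition of growth. TGI marks complete inhibition of growth.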

Assays:
Assay in all cases: NCI-60 cell line screen, 48 h
[1] = tested on: SK-MEL-28 melanoma
[2] = tested on: HCT-15 colon
[3] = tested on: RXF 393 renal
[4] = tested on: BT-549 breast
[5] = tested on: SK-MEL-2 melanoma
[6] = tested on: NCI/ADR-RES ovarian
[7] = tested on: HT29 colon
[8] = tested on: HOP-62 NSCLC
[9] = tested on: OVCAR-5 ovarian
[10] = tested on: 786-0 renal

| Compound | GI50 [1] | TGI [1] | GI50 [2] | TGI [2] | GI50 [3] | TGI [3] | GI50 [4] | TGI [4] | GI50 [5] | TGI [5] | GI50 [6] | TGI [6] | GI50 [7] | TGI [7] | GI50 [8] | TGI [8] | GI50 [9] | TGI [9] | GI50 [10] | TGI [10] |
| --- | --- | --- | --- | --- | --- | --- | --- | --- | --- | --- | --- | --- | --- | --- | --- | --- | --- | --- | --- | --- |
| COc1ccc2c(C3(c4cn(C)c5cc(OC)ccc45)C(=O)Nc4ccc(Cl)cc43)cn(C)c2c1 | 4.71 µM | > 100 µM | 4.5 µM | > 100 µM | 2.5 µM | 7.87 µM | 5.26 µM | 83.4 µM | 2.97 µM | 6.55 µM | 3.9 µM | > 100 µM | 3.22 µM | 24 µM | 4.2 µM | > 100 µM | 5.37 µM | > 100 µM | 4.12 µM | 70 µM |
| COC(=O)C1OC2(CCCC3CC32)O[C@H]1C(=O)OC (stereo not given in full) |  | > 100 µM |  | > 100 µM |  | > 100 µM |  | > 100 µM |  | > 100 µM |  | > 100 µM |  | > 100 µM |  | > 100 µM |  | > 100 µM |  | > 100 µM |
| CC(=O)c1c(CN(C)c2ccccc2)n([O-])c2ccccc2[n+]1=O | 38.7 µM | > 100 µM | 31.3 µM | > 100 µM | 21.2 µM | 62.7 µM | 25.1 µM | 86.6 µM | > 100 µM | > 100 µM | 19.5 µM | 55.9 µM | 20.4 µM | 49.2 µM | 30.7 µM | > 100 µM | 31.9 µM | > 100 µM | 55 µM | > 100 µM |
| FC(F)(F)c1ccc(-c2cnc(-n3cc(COCCN4CCCCC4)nn3)nc2NC2CCCCCC2)cc1 | 3.6 µM | 6.99 µM | 4.02 µM | 8.66 µM | 2.51 µM | 5.67 µM | 4.33 µM | 8.55 µM | 4.42 µM | 8.22 µM | 3.85 µM | 7.66 µM | 1.46 µM | 5.08 µM | 4.15 µM | 8.64 µM | 4.72 µM | 8.79 µM | 3.73 µM | 7.28 µM |
| Clc1ccc(-c2nnc(-c3cccc4ccccc34)o2)cc1Cl |  | > 100 µM |  | > 100 µM |  | > 100 µM |  | > 100 µM |  | > 100 µM |  | > 100 µM |  | > 100 µM |  | > 100 µM |  | > 100 µM |  | > 100 µM |
| CCC(c1ccc(OC)cc1)C(CC)c1ccc(O)c(CN2CCN(C)CC2)c1 (stereo not given) | 2.16 µM | 4.23 µM | 2.66 µM | 7.67 µM | 2.83 µM | 12.2 µM | 13.2 µM | 26.8 µM | 2.85 µM | 6.46 µM | 5.51 µM | 20.6 µM | 2.01 µM | 9.06 µM | 11 µM | 26.2 µM | 14.7 µM | 29.3 µM | 3.4 µM | 10.9 µM |
| O=C(CN1CCN(c2cc3c(cc2F)c(=O)c(C(=O)O)cn3C2CC2)CC1)Nc1nc(-c2ccc(Cl)cc2)cs1 | 3.02 µM | 45.8 µM | 3.23 µM | 23.7 µM | 4.72 µM | > 100 µM | 3.85 µM | 60.3 µM | 3.12 µM | 21 µM | 5.62 µM | > 100 µM | 3.43 µM | 29.4 µM | 4.16 µM | > 100 µM | 8.66 µM | > 100 µM | 4.24 µM | > 100 µM |
| NC1=NC(c2ccc(Cl)cc2)N(c2ccc(S(N)(=O)=O)cc2)C(N)=N1 (stereo not given) |  | > 100 µM |  | > 100 µM |  | > 100 µM |  | > 100 µM |  | > 100 µM |  | > 100 µM |  | > 100 µM |  | > 100 µM |  | > 100 µM |  | > 100 µM |
| COc1cccc2c1-c1c(c3ccc([N+](=O)[O-])cc3c(=O)n1CCCN)C2=O | 1.86 µM | 3.81 µM | 1.4 µM | 3.37 µM | 24.1 µM | > 78.8 µM | 1.72 µM | 3.61 µM | 1.58 µM | 3 µM | 3.99 µM | 19.1 µM | 1.24 µM | 3.08 µM | 1.13 µM | 2.5 µM | 1.88 µM | 3.4 µM | 0.479 µM | 0.987 µM |
| Cc1cc2cc3ccc(N(C)C)cc3nc2cc1N | 1.69 µM | 4.74 µM | 1.4 µM | 17.8 µM | 0.41 µM | 1.34 µM | 1.64 µM | 3.82 µM | 0.392 µM | 1.6 µM | 2.51 µM | 23.4 µM | 0.327 µM | 1.76 µM | 0.481 µM | 2.45 µM | 1.26 µM | 6.55 µM | 0.597 µM | 2.47 µM |
| O=C(O)C1CC2(C1)CC(C(=O)O)C2 (stereo not given) |  | > 100 µM |  | > 100 µM |  | > 100 µM |  | > 100 µM |  | > 100 µM |  | > 100 µM |  | > 100 µM |  | > 100 µM |  | > 100 µM |  | > 100 µM |
| C=C1C(=O)O[C@H]2[C@H]1CC/C(COC(=O)CCSCCC(=O)OC/C1=C/CC[C@@]3(C)O[C@H]3[C@H]3OC(=O)C(=C)[C@@H]3CC1)=C\CC[C@@]1(C)O[C@@H]21 | 1.39 µM | 2.86 µM | 1.11 µM | 2.46 µM | 0.767 µM | 2.15 µM | 1.29 µM | 2.66 µM | 2.18 µM | 4.88 µM | 3.21 µM | 11 µM | 0.496 µM | 1.73 µM | 2.36 µM | 7.94 µM | 2.11 µM | 4.21 µM | 0.904 µM | 2.21 µM |
| CCOC(=O)c1c(C)n(Cc2ccccc2)c2c1cc(O)c1[nH]c(Cc3ccccc3)nc12 | 24.3 µM | > 100 µM | 4.66 µM | > 100 µM | 3.4 µM | 14.8 µM | 2.39 µM | 28.8 µM | 26.7 µM | > 100 µM | 18.9 µM | > 57.9 µM | 6.79 µM | > 34.4 µM | 17.4 µM | > 85.6 µM | > 22.7 µM | > 61 µM | 20.2 µM | 72 µM |
| COc1cccc(-c2nn(-c3ccccc3)cc2-c2ccnc(NCCNC(=O)Nc3cccc(C(F)(F)F)c3)c2)c1 | 1.83 µM | 3.77 µM | 1.7 µM | 3.71 µM | 1.53 µM | 3.03 µM | 3.4 µM | 13.1 µM | 1.69 µM | 3.6 µM | 2.22 µM | 5.82 µM | 1.68 µM | 3.47 µM | 2.52 µM | 5.63 µM | 1.51 µM | 3.63 µM | 1.93 µM | 4.39 µM |
